The numbers were not newly measured in US10813929B2, “Treating cancer with ATR inhibitors” (VERTEX PHARMACEUTICALS INCORPORATED, priority 2011, dated 2020), which cites them from elsewhere.

The data set concerns pancreatic cancer. Conditions: treatment with gemcitabine, increased from 10%; cited from earlier work.

SMILES strings stand for the structures.

Regarding `Nc1ccn([C@@H]2O[C@H](CO)[C@@H](O)C2(F)F)c(=O)n1` [gemcitabine], the 5-year survival is given as 20%.
